Values quoted from earlier work as cited in patent US20230330298A1 (priority 2022, published 2023).

System: Clostridium botulinum spores

Row | Compound | Sporicidal Minimal Inhibitory Concentration [mM] | Sporostatic Minimal Inhibitory Concentration [mM]
1 | O=Cc1ccccc1 [Benzaldehyde] | 625 | 0.6
2 | O=Cc1ccc2c(c1)OCO2 [Piperonal] | >2500 | 0.6
3 | O=CC=Cc1ccccc1 [Cinnamaldehyde] | >2500 | 9.8
4 | COc1cc(C=O)ccc1O [Vanillin] | 125 | 0.6

System: bacterial spores

Row | Compound | Sporicidal effect (in words)
5 | CCCCCCCCCCCC(=O)OCC(O)CO (stereo not shown) [Monolaurin] | kill bacterial spores
6 | CCCCCCCCCCCCCCCCCC(=O)OCC(O)CO (stereo not shown) [glycerol monostearate] | kill bacterial spores
